System: IgG response to murine hemi-surrogate CEA-TCB
Test: ADA against murine hemi-surrogate CEA-TCB in hIgG1 Tg mice, ELISA (Example 8)
Format: in vivo, C57BL/6-Tg (hIgG1,k,l) mice
Conditions: 40 mg/kg/day via food admix from one week before first immunization until day 28, vs vehicle
Procedure: 11-15-week-old mice C57BL/6-Tg (hIgG1,k,l) mixed gender (n=20) were purchased from Taconic (Denmark) and housed at the animal facilities in room with air-conditioned under a 12 hours light/dark cycle in macrolon boxes with enriched environment and free access to water and food. 7×10 μg of CEA-TCB (P1AE3536, huCEA binder CH1A1A/mouse CD3 binder 2C11) were injected at day 0, 4, 7, 11, 14, 18 and 21 subcutaneously in the right flank or the left flank alternatively. The dosage of (2S,4R)-4-[4-(1-methyl-1H-pyrazol-4-yl)-2-trifluoromethyl-benzenesulfonyl]-1-(1-trifluoromethyl-cyclopropanecarbonyl)-pyrrolidine-2-carboxylic acid (1-cyano-cyclopropyl)-amide consumption was 40 mg/kg/day. […]
Nunc Maxisorp flat-bottom 96 well ELISA plates were coated with 100 μl per well of huCEA IgG PGLALA (P1AD9477) or hu anti mouse CD3 (P1AE2779-001-01) respectively at 5 μg/mL in NaHCO3100 mM buffer overnight at +4° C. […] 100 μl of substrate P-nitrophenyl phosphate ready to use (Life Technologies, Cat no 002212) were added per well and after 10 min incubation at room temperature, the OD at 405 nm was read as an end-point measurement with a Versamax ELISA reader.

Q: With `Cn1cc(-c2ccc(S(=O)(=O)[C@@H]3C[C@@H](C(=O)NC4(C#N)CC4)N(C(=O)C4(C(F)(F)F)CC4)C3)c(C(F)(F)F)c2)cn1` [cathepsin S inhibitor, (2S,4R)-4-[4-(1-methyl-1H-pyrazol-4-yl)-2-trifluoromethyl-benzenesulfonyl]-1-(1-trifluoromethyl-cyclopropanecarbonyl)-pyrrolidine-2-carboxylic acid (1-cyano-cyclopropyl)-amide] as the compound, how does the “ADA specific to CD3 binder (2C11) of CEA-TCB” value read?
A: The value was “significantly reduced ADA to CD3 binder”.

Q: What about the “CEA-specific ADA to CEA-TCB” value of the same compound?
A: Its value is “reduction of CEA-specific ADA was not significant”.
